{"source": "patent US8012938B2", "about": "“Dermatological and/or cosmetic composition containing polypeptides” (ISP Investments Inc., priority 2004, dated 2011)", "type_in_all_cases": "cell-based", "key": {"[1]": {"tested_on": "differentiated 3T3-L1 cells", "experiment": "Measurement of intracellular ATP", "details": "0.5% solution at 50 ppm; period up to 96 hours", "description": "The aim of this study was to determine the influence of the peptide according to the invention on the quantity of intracellular ATP. The study was carried out using an “ATP Bioluminescence Assay HS II” kit. Differentiated 3T3-L1 cells were treated with a 0.5% solution at 50 ppm, containing the peptide of SEQ ID NO: 1, representative of the peptide family according to the invention, for a period up to 96 hours. At the end of the incubation time, the wells were emptied of their medium and were rinsed with 2 ml of cold PBS before adding 250 μl of lysis buffer, provided by the kit. The cells were then scraped, and then collected separately in 14 ml tubes. Each well was rinsed with 2×500 μl of cold PBS and everything was again collected in the respective tubes. Each tube was then placed in the polytron for 10 seconds at 18000 rpm. From these samples, a dilution of 1/12000, using cold PBS, was carried out before each reading. ATP quantity assessment was performed on these samples: 50 μl of this dilution were placed in a luma-basin and 50 μl of […] were added. The reading of luminescence started after 10 seconds. The values were standardized compared to the quantity of proteins for each sample. Measurements were taken using a Biocounter M2010A LUMAC®/3M."}, "[2]": {"tested_on": "differentiated 3T3-L1 cells", "experiment": "Measurement of glycerol released by adipocytes", "details": "active ingredient at 0.5% (solution at 50 ppm); 1 h 30, 3 h, 5 h, 7 h and 24 h; versus control wells", "description": "The purpose of this study was to determine the influence of the peptide according to the invention on glycerol release by adipocytes, glycerol being the result of lipolysis.\nDifferentiated 3T3-L1 cells were treated with a 0.5% solution at 50 ppm, containing the peptide of SEQ ID NO:1, representative of the peptide family according to the invention, for periods of 1 h 30, 3 h, 5 h, 7 h and 24 h.\nThe concentration of glycerol was determined using a series of enzymatic reactions leading to the formation of NADH of which the produced quantity was evaluated by spectrophometric readings at 340 nm, the formation of NADH being proportional to the quantity of glycerol released in the culture medium. An internal control of 1 mM glycerol was also used. The values were standardized in comparison to the quantity of proteins for each sample."}, "3T3-L1 cells": {"tested_on": "3T3-L1 cells", "experiment": "Oil red staining of lipid vacuoles of adipocytes", "details": "0.5% solution at 50 ppm", "description": "Undifferentiated 3T3-L1 preadipocyte cell lines were seeded in 8-well Lab-Tek slides (for oil red staining), in 12-well plates (for ATP measurement), in 24-well plates (for cAMP measurement) and in 6-well plates (for glycerol measurement) as well as with DMEM culture medium (4.5 g/l) containing antibiotics. These 3T3-L1 preadipocytes were capable of entering, under certain conditions, the terminal differentiation phase.\nOnce the 3T3-L1 cells had reached 100% confluence, they were differentiated by putting them into culture in various mediums, over a period of 6 to 8 days.\nDuring the first 2 days, cells were cultured in the presence of IBMX, dexamethasone, and insulin diluted in DMEM culture medium at 4.5 g/l. Then, they were cultured for two days only in the presence of insulin diluted in DMEM culture medium at 4.5 g/l and, finally, the cells were cultivated for 2 to 3 days in culture medium containing exclusively DMEM 4.5 g/l.\nCell differentiation in mature adipocytes was visualized by the appearance of lipid droplets in the cytoplasm of the cells.\nThe principle of this evaluative test on the effect of peptides rests on a microscopic observation of the number and size of lipid vacuoles of adipocytes after staining. Adipocytes were incubated or not in the presence of the substance to be tested.\n3T3-L1 cells, seeded in 8-well Lab-Teks, were treated with the peptide of SEQ ID NO:1, i.e. of sequence Pro-Leu-Asp-Thr-Ala-Lys-Val-Arg-Leu-Gln, representative of the peptide family according to the invention, placed in a 0.5% solution at 50 ppm. The active ingredient was added at various stages of culture: • At the start of the incubation and until the end of adipocyte differentiation (72 hours of culture until 100% confluence, then for the 6 days of differentiation); • 6 hours after incubation and until the end of cell differentiation (66 hours of culture until 100% confluence, then for the 6 days of differentiation); • Once cells differentiated in the adipocytes, they were treated with the active ingredient for 6, 24, or 48 hours. […]"}, "[3]": {"tested_on": "differentiated 3T3-L1 cells", "experiment": "Measurement of intracellular cAMP", "details": "0.5% solution at 50 ppm; 15 minutes, 30 minutes or 1 hour; compared to cells treated with isoproterenol 1 μM", "description": "The objective of this test was to measure the variation of the intracellular concentration of cAMP in adipocytes, in order to deduce a possible activation of the phenomenon of lipolysis.\nThe test was carried out on differentiated 3T3-L1 cells. These adipocytes were treated with the peptide of (SEQ ID NO: 1), i.e. of sequence Pro-Leu-Asp-Thr-Ala-Lys-Val-Arg-Leu-Gln, representative of the peptide family according to the invention, placed in a 0.5% solution at 50 ppm, for periods of 15 minutes, 30 minutes, or 1 hour. In parallel, differentiated 3T3-L1 cells were also treated with isoproterenol (an agent that induces lipolysis), at 1 μM, thus forming a positive control.\nAfter the various incubation periods, in the presence of the active ingredient being tested or in the presence of isoproterenol, the quantity of cAMP contained in adipocytes was measured using the “AMP Biotrak® EIA System” kit purchased from Amersham Biosciences as well as by a test principle, colorimetric ELISA. The kit made cell lysis possible through a solution allowing for the hydrolysis of cellular membranes and the release of intracellular cAMP in the medium. Followed by the binding of antibodies specific to intracellular cAMP extracted from samples, which is placed in competition with cAMP that has been coupled to the enzyme, peroxidase."}, "[4]": {"details": "added at the start of incubation or 6 hours after incubation until end of differentiation, compared with control cells"}}, "note": "No end group written: not given here."}
{"sequence": "PLDTAKVRLQ [SEQ ID NO:1, peptide fragment from the UCP family]", "values": [{"measurement": "amount of intracellular ATP", "setting": "[1]", "value": "lack of increase"}, {"measurement": "glycerol release by differentiated cells", "setting": "[2]", "value": "identical"}, {"measurement": "cell morphology", "setting": "3T3-L1 cells; [4]", "value": "less round morphology"}, {"measurement": "content of intra-adipocyte lipid vesicles", "setting": "3T3-L1 cells; [4]", "value": "clearly decreased content of intra-adipocyte lipid vesicles"}, {"measurement": "reduction of intra-adipocyte lipid vesicles in mature adipocytes", "setting": "3T3-L1 cells; applied once differentiation was completed, for 6, 24 or 48 hours", "value": "no reduction was observed"}, {"measurement": "intracellular quantity of cAMP", "setting": "[3]", "value": "no increase"}]}
